# Measurements from patent publication US20260151413A1, “ANTICANCER DRUG CONJUGATES” (Ariel Scientific Innovations Ltd., priority 2022, published 2026).
# “Also recorded” adds a separate entry of the source.
# Columns and labels:
# MHH-CALL4 = experiment: WST-1 proliferation assay, MHH-CALL4; format: cell-based, human; settings: Homo sapiens, MHHCALL4; WST-1, 48 hours of treatment
# Description: (§1) Albert Pinhasov (Ariel University, Ariel, Israel). […] Granta cells were kindly provided by Prof.
# (§2) Table 3 [resents the calculated IC50 values (μM) for each chimera in different hematological malignancies cell-lines. The proliferation rate was measured by WST-1 assay after 48 hours of treatment. The result shown for each concentration point represents the […]
# MINO = experiment: WST-1 proliferation assay, MINO; format: cell-based, human; settings: Homo sapiens, MINO; WST-1, 48 hours of treatment
# Description: as §1, §2
# KG-1a = experiment: WST-1 proliferation assay, KG-1a; format: cell-based; settings: Homo sapiens, KG-1a; WST-1, 48 hours of treatment
# Description: as §1, §2
# HEL = experiment: WST-1 proliferation assay, HEL; format: cell-based, human; settings: Homo sapiens, HEL; WST-1, 48 hours of treatment
# Description: as §1, §2
# [1] = tested on: OCI-AML3, KG-1a, Granta, Jeko-1, BV-173 and MDA MB-231 cell-lines; experiment: Low-dose proliferation test on aggressive cell-lines; format: cell-based; settings: 50 nM-250 nM
# Description: The cytotoxicity of the synthesized chimeras on MDA MB-328 was determined by measuring the mitochondrial enzyme activity, using a commercial XTT assay kit (Biological Industries, Bet-Ha'emek, Israel). All samples contained DMSO (Sigma Aldrich) at final concentration […], XTT reagent was added, and the cells were re-incubated for additional 3 h. During that time, the absorbencies in the wells were measured with a TECAN Infinite M200 ELISA reader at both 480 and 680 nm. The difference between these measurements was used for calculating the % Growth Inhibition (GI) in test wells compared to two controls: cells that were exposed to the medium and solvent, and those which were exposed to a solvent-free medium. All the tests were done in tetra-plicate; each experiment was conducted three times.
# Therefore, it was decided to reduce chimera 9 and the parental drug (doxorubicin) doses to 50-250 nM range on the most four aggressive hematological malignancies cell-lines (OCI-AML3, KG-1a, Granta and Jeko-1). Moreover, chimera 9 was examined on an additional aggressive leukemia cell line (BV-173) and breast cancer cell-line model (MDA MB-231).
# [2] = tested on: Human primary anaplastic thyroid cancer (ATC) cells; experiment: Vitality/proliferation of primary anaplastic thyroid cancer cells; format: cell-based; settings: 100 nM, 250 nM, 500 nM; 3, 5 and 7 days
# Description: Human primary anaplastic thyroid cancer (ATC) cells were treated with chimera 9 (100 nM, 250 nM, and 500 nM), or Doxorubicin (100 nM, 250 nM, and 500 nM), or with vehicle, for 3, 5, and 7 days.
# [3] = tested on: 10 hematological cell-lines; experiment: In vitro cytotoxicity screening on the panel of hematological cell-lines (WST-1)
# Description: The above cells were cultured in RPMI medium (Gibco, Thermo Fisher Scientific Inc., USA). […] All media were supplemented with 10% heat-inactivated Fetal Bovine Serum (FBS, Biological industries, Israel), 2 mM glutamine (Biological industries, Israel) and 1% penicillin and streptomycin (Biological industries, Israel). Cells were cultured at 37° C. in a humidified incubator with 5% CO2.
# Growth inhibition in hematological malignancies cell-lines was measured by tetrazolium WST-1 assay (Roche, Basel, Switzerland). Cells (1*10^4) were treated with various concentrations of the specific chimera or parental drug. After 48 h of incubation, 10 μl of WST-1 reagent was added to the plate and incubated for 1 h at 37° C., at which point the absorbance (450 nm) was measured in an ELISA plate reader (Synergy HTX multi-mode reader, Winooski, Vermont, USA).
# MUTZ5 and MHH-CALL4; B-cell Acute lymphocytic leukemia (B-cell ALL) model. DND41; T-ALL model. KG-1a and OCI-AML-3; Acute myeloid leukemia (AML) model and HEL; erythroleukemia model.
smiles,measurement,setting,value
"COC(=O)N(C)/N=N/c1ccc(CNC2CC(OC3CC(O)(C(=O)CO)Cc4c(O)c5c(c(O)c43)C(=O)c3c(OC)cccc3C5=O)OC(C)C2O)cc1 (stereo not drawn) [Chimera 9, (E)-methyl-3-(4-(((3-hydroxy-2-methyl-6-((3,5,12-trihydroxy-3-(2-hydroxyacetyl)-10-methoxy-6,11-dioxo-1,2,3,4,6,11-hexahydrotetracen-1-yl)oxy)tetrahydro-2H-pyran-4-yl)amino)methyl)phenyl)-1-methyltriaz-2-ene-1-carboxylate]",IC50,MHH-CALL4,1.14 µM
same,IC50,MINO,0.48 µM
same,IC50,KG-1a,0.4 µM
same,IC50,HEL,0.97 µM
same,proliferation rate versus corresponding controls,[1],significant reduction in the proliferation rate
same,vitality/proliferation of primary human ATC cells,[2],reduced the vitality/proliferation of primary human ATC cells significantly; also recorded: higher effect
same,cytotoxic effect,[3]; 250 nM,exceptional cytotoxic effect
same,effect on proliferation rate across the examined cell-lines,"[3]; 10 hematological cell-lines, WST-1",inhibited the proliferation rate in all the examined cell-lines
same,cytotoxic effect compared to the parental non-conjugated drug,[3]; chimera vs its parent drug,reduced proliferation rate of numerous cell-lines; also recorded: superior to Doxorubicin
